This note sets out measurements from US20150344540A1, “NOVEL GLP-1 RECEPTOR AGONISTS WITH CHOLESTEROL EFFLUX ACTIVITY” (NOVO NORDISK A/S, priority 2012, published 2015).

Where a SMILES comes first, the peptide text is derived from it. [ ]: non-standard residue; d: D form. Aib = CC(C)(N)C(=O)O

In the test the test system is Mouse monocyte/macrophage cell line, RAW 264.7. Nature of the test: Cholesterol efflux assay (3H-cholesterol, macrophage cell line). In kind it is cell-based. Particulars: RAW 264.7, 4 hrs incubation, 0.1% human serum albumin, ABCA1-mediated efflux.

As for `CC[C@H](C)[C@H](NC(=O)[C@H](Cc1ccccc1)NC(=O)[C@H](CCC(=O)O)NC(=O)[C@H](CCCCN)NC(=O)[C@@H](NC(=O)[C@H](CCCCN)NC(=O)[C@H](CCC(=O)O)NC(=O)CNC(=O)[C@H](CCC(=O)O)NC(=O)[C@H](CC(C)C)NC(=O)[C@H](Cc1ccc(O)cc1)NC(=O)[C@H](CO)NC(=O)[C@H](CO)NC(=O)[C@@H](NC(=O)[C@H](CC(=O)O)NC(=O)[C@H](CO)NC(=O)[C@@H](NC(=O)[C@H](Cc1ccccc1)NC(=O)[C@@H](NC(=O)CNC(=O)[C@H](CCC(=O)O)NC(=O)C(C)(C)NC(=O)[C@@H](N)Cc1c[nH]cn1)[C@@H](C)O)[C@@H](C)O)C(C)C)C(C)C)C(=O)N[C@@H](CCC(=O)O)C(=O)N[C@@H](Cc1c[nH]cn1)C(=O)N[C@@H](CC(C)C)C(=O)N[C@H](C(=O)N[C@@H](CCC(=O)O)C(=O)N[C@@H](CCCCN)C(=O)NC(C)(C)C(=O)N[C@@H](CCCCN)C(=O)N[C@@H](CCC(=O)O)C(=O)N[C@@H](Cc1ccccc1)C(=O)N[C@@H](CC(C)C)C(N)=O)C(C)C` [Compound 71, [Aib8,Glu23,Lys24,Val25,Glu30,His31,Glu34,Lys35,Aib36,Lys37]-GLP-1-(7-37)-peptidyl-Glu-Phe-Leu amide] (H-H[Aib]EGTFTSDVSSYLEGEKVKEFIEHLVEK[Aib]KEFL-NH2), the “4 h Cholesterol Efflux Emax” value is reported as 130%. The value for `CC[C@H](C)[C@H](NC(=O)[C@H](Cc1ccccc1)NC(=O)[C@H](CCC(=O)O)NC(=O)[C@H](CCCNC(=N)N)NC(=O)[C@@H](NC(=O)[C@H](C)NC(=O)[C@H](CCC(=O)O)NC(=O)[C@H](CCC(=O)O)NC(=O)[C@H](CCC(=O)O)NC(=O)[C@H](CCSC)NC(=O)[C@H](CCC(N)=O)NC(=O)[C@H](CCCCN)NC(=O)[C@H](CO)NC(=O)[C@H](CC(C)C)NC(=O)[C@H](CC(=O)O)NC(=O)[C@H](CO)NC(=O)[C@@H](NC(=O)[C@H](Cc1ccccc1)NC(=O)[C@@H](NC(=O)CNC(=O)[C@H](CCC(=O)O)NC(=O)C(C)(C)NC(=O)[C@@H](N)Cc1c[nH]cn1)[C@@H](C)O)[C@@H](C)O)C(C)C)C(=O)N[C@@H](CCC(=O)O)C(=O)N[C@@H](Cc1c[nH]c2ccccc12)C(=O)N[C@@H](CC(C)C)C(=O)N[C@@H](CCCCN)C(=O)N[C@@H](CC(N)=O)C(=O)N[C@@H](CCCCN)C(=O)NC(C)(C)C(=O)N[C@@H](CC(C)C)C(=O)N[C@@H](CCC(=O)O)C(=O)N[C@@H](Cc1ccccc1)C(=O)N[C@@H](CC(C)C)C(=O)N[C@@H](C)C(=O)N[C@@H](CC(C)C)C(=O)N[C@@H](CC(C)C)C(N)=O` [Compound 41, [Aib2,Glu21,Lys29,Aib30,Leu31,Glu32,Phe33,Leu34,Leu36,Leu371-Exendin-4-(1-37)-peptide amide] (H-H[Aib]EGTFTSDLSKQMEEEAVREFIEWLKNK[Aib]LEFLALL-NH2; N-terminus assumed) was 98%; that for `CC[C@H](C)[C@H](NC(=O)[C@H](Cc1ccccc1)NC(=O)[C@H](CCC(=O)O)NC(=O)[C@H](CCCCN)NC(=O)[C@@H](NC(=O)[C@H](C)NC(=O)[C@H](CCC(=O)O)NC(=O)[C@H](CCC(=O)O)NC(=O)[C@H](CCC(=O)O)NC(=O)[C@H](CC(C)C)NC(=O)[C@H](Cc1ccc(O)cc1)NC(=O)[C@H](CO)NC(=O)[C@H](CO)NC(=O)[C@@H](NC(=O)[C@H](CC(=O)O)NC(=O)[C@H](CO)NC(=O)[C@@H](NC(=O)[C@H](Cc1ccccc1)NC(=O)[C@@H](NC(=O)CNC(=O)[C@H](CCC(=O)O)NC(=O)C(C)(C)NC(=O)[C@@H](N)Cc1c[nH]cn1)[C@@H](C)O)[C@@H](C)O)C(C)C)C(C)C)C(=O)N[C@@H](C)C(=O)N[C@@H](Cc1c[nH]c2ccccc12)C(=O)N[C@@H](CC(C)C)C(=O)N[C@H](C(=O)N[C@@H](CCC(=O)O)C(=O)N[C@@H](CCCCN)C(=O)N[C@H](C(=O)N[C@@H](CCCCN)C(=O)N[C@@H](CCC(=O)O)C(=O)N[C@@H](CC(C)C)C(=O)N[C@@H](CC(C)C)C(N)=O)C(C)C)C(C)C` [Compound 109, [Aib8,Glu22,Glu23,Val25,Glu34,Lys35,Val36,Lys37]-GLP-1-(7-37)-peptidyl-Glu-Leu-Leu amide] (H-H[Aib]EGTFTSDVSSYLEEEAVKEFIAWLVEKVKELL-NH2) was 99%; that for `CC[C@H](C)[C@H](NC(=O)[C@H](Cc1ccccc1)NC(=O)[C@H](CCC(=O)O)NC(=O)[C@H](CCCCN)NC(=O)[C@@H](NC(=O)[C@H](C)NC(=O)[C@H](CCC(=O)O)NC(=O)CNC(=O)[C@H](CCC(=O)O)NC(=O)[C@H](CC(C)C)NC(=O)[C@H](Cc1ccc(O)cc1)NC(=O)[C@H](CO)NC(=O)[C@H](CO)NC(=O)[C@@H](NC(=O)[C@H](CC(=O)O)NC(=O)[C@H](CO)NC(=O)[C@@H](NC(=O)[C@H](Cc1ccccc1)NC(=O)[C@@H](NC(=O)CNC(=O)[C@H](CCC(=O)O)NC(=O)C(C)(C)NC(=O)[C@@H](N)Cc1c[nH]cn1)[C@@H](C)O)[C@@H](C)O)C(C)C)C(C)C)C(=O)N[C@@H](C)C(=O)N[C@@H](Cc1c[nH]c2ccccc12)C(=O)N[C@@H](CC(C)C)C(=O)N[C@H](C(=O)N[C@@H](CCC(=O)O)C(=O)N[C@@H](CCCCN)C(=O)NC(C)(C)C(=O)N[C@@H](CCCCN)C(=O)N[C@@H](CCC(=O)O)C(=O)N[C@@H](Cc1ccccc1)C(=O)N[C@@H](Cc1c[nH]cn1)C(N)=O)C(C)C` [Compound 22, [Aib8,Glu23,Val25,Glu34,Lys35,Aib36,Lys37]-GLP-1-(7-37)-peptidyl-Glu-Phe-His amide] (H-H[Aib]EGTFTSDVSSYLEGEAVKEFIAWLVEK[Aib]KEFH-NH2) was 106%. The value for `CC[C@H](C)[C@H](NC(=O)[C@H](Cc1ccccc1)NC(=O)[C@H](CCC(=O)O)NC(=O)[C@H](CCCCN)NC(=O)[C@@H](NC(=O)[C@H](C)NC(=O)[C@H](CCC(=O)O)NC(=O)CNC(=O)[C@H](CCC(=O)O)NC(=O)[C@H](CC(C)C)NC(=O)[C@H](Cc1ccc(O)cc1)NC(=O)[C@H](CO)NC(=O)[C@H](CO)NC(=O)[C@@H](NC(=O)[C@H](CC(=O)O)NC(=O)[C@H](CO)NC(=O)[C@@H](NC(=O)[C@H](Cc1ccccc1)NC(=O)[C@@H](NC(=O)CNC(=O)[C@H](CCC(=O)O)NC(=O)C(C)(C)NC(=O)[C@@H](N)Cc1c[nH]cn1)[C@@H](C)O)[C@@H](C)O)C(C)C)C(C)C)C(=O)N[C@@H](C)C(=O)N[C@@H](Cc1c[nH]c2ccccc12)C(=O)N[C@@H](CC(C)C)C(=O)N[C@H](C(=O)N[C@@H](CCC(=O)O)C(=O)N[C@@H](CCCCN)C(=O)N[C@H](C(=O)N[C@@H](CCCCN)C(=O)N[C@@H](CCC(=O)O)C(=O)N[C@@H](CC(C)C)C(=O)N[C@@H](CC(C)C)C(N)=O)C(C)C)C(C)C` [Compound 119, [Aib8,Glu23,Val25,Glu34,Lys35,Val36,Lys37]-GLP-1-(7-37)-peptidyl-Glu-Leu-Leu amide] (H-H[Aib]EGTFTSDVSSYLEGEAVKEFIAWLVEKVKELL-NH2) was 117%.
